Measured values: patent US8158589B2, “Peptides with the capacity to bind to transforming growth factor β1 (TGF-β1)” (Proyecto Biomedicine Cima, S.L., priority 2003, dated 2012)
Ends that are not written are not given here.

target: T1, TGF-β1 (Homo sapiens, UniProt P01137); test: Biopanning of phage-displayed 15-aa peptide library on biotinylated TGF-β1, number of colonies per sequence; format: binding; parameters: purchased Roche; host or cells: added to Mv-1-Lu (CCL-64) mink lung epithelial cells; conditions: clones carrying the sequence among 108 colonies after the last biopanning cycle; approximate indication of affinity for TGF-β1
T1 sequence (P01137 279-390 limits assumed, species assumed): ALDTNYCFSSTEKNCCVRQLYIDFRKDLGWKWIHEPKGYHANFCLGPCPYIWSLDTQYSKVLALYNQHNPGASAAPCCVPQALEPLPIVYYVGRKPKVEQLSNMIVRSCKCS
Excerpt: These libraries comprise a plurality of filamentous bacteriophages (M13), each one containing a peptide genetically fused to a protein of the virus envelope—in this case bound to the N-terminal end of envelope protein pIII (FIG. 1). […] In the phage libraries, the sequence encoding the peptide originates from a sequence degenerated in each one of the 15 positions with the 20 natural amino acids, thus allowing the presentation of 1.1×10^12 possible sequences of 15 amino acids in different phages. The physical ratio, 1:1, between the peptide sequence and the DNA encoding it within the bacteriophage allows the selection (from a broad range of variants) of those sequences that specifically bind to TGF-β1. This process is carried out via an in vitro selection protocol known as “biopanning”.
This technique involves incubating a set of phages representative (to practical effects) of all the 15-aa variants, in a plate blocked with streptavidin (10 μg/ml in 0.1 M NaHCO3, during 2 h at room temperature) to which biotinylated TGF-β1 is added. […] TGF-β1 contacts the peptides carried by the phages at a concentration of […]. After about 12 hours incubation, unbound phages are eliminated by 5 washings with PBS/Tween (phosphate buffered saline/polyoxyalkylene derivatives of sorbitan fatty acid esters). […] The eluted phages are then amplified by infection in a bacterial strain (E. coli). The process is repeated three cycles so that an enrichment in the content of phages which specifically bind, and with high affinity, to TGF-β1 is achieved (FIG. 3). […] Thus, the phages selected in each cycle show more and more affinity for TGF-β1. At the end of the process, phages which have been selected for their affinity for TGF-β1, are sequenced by using primers, after isolation by tetracycline resistance of the genetically modified phages after infecting E. coli cells. […] The number of times which a sequence is repeated, corresponding to a 15 amino acids peptide carried by each clone, from the total of sequenced colonies is an indication of the degree of relative affinity of said 15 amino acids sequence for TGF-β1.
The selection of clones, obtained from the “biopanning”, was carried out by selection of the bacterial colonies infected with the phages in the presence of a bacterial antibiotic; the bacteria resistance is acquired by a tetracycline resistance gene encoded by the phage genome. Thus, only those colonies infected with bacteriophages are able to grow. This means that each colony contains the genome of only one phage coding for only one peptide presented in its surface.
A total number of 108 colonies of phage-infected bacteria were obtained from the last selection cycle of “biopanning”. The sequence of the regions coding for the peptides present in the pIII protein was carried out using primers identified with SEQ ID NO: 23. This table also reflects the number of colonies (clones) carrying said sequences.
The number of clones (colonies) of each sequence gives an approximate indication of the degree of affinity of the peptide for TGF-β1, that is, the more colonies the more binding affinity.

| No. colonies | Sequence |
| --- | --- |
| 6 | DRRIFWWSLRSAPGA [SEQ ID NO: 1] |
| 1 | HVRLHHYLRHRSLPN [SEQ ID NO: 21] |
| 1 | DRRIFWWSNRSAPGA [SEQ ID NO: 2] |
| 2 | HRISHFAHRYLARLH [SEQ ID NO: 7] |
| 1 | WHKYFLRRPLSVGLG [SEQ ID NO: 12] |
| 12 | PPYHRFWRGHRHAVQ [SEQ ID NO: 6] |
| 1 | GWITFHRRHHDRVLS [SEQ ID NO: 15] |
| 1 | MPLSRYWWLFSHRPR [SEQ ID NO: 18] |
| 1 | RRFHFHSRMVAVDNS [SEQ ID NO: 20] |
| 1 | RRWVRYPVHLHSPIV [SEQ ID NO: 5] |
| 1 | VPMALNHGVYVMVSS [SEQ ID NO: 22] |
| 1 | FVWVRFHRLPRQIYT [SEQ ID NO: 10] |
| 2 | WHWRHRIPLQLAAGR [SEQ ID NO: 8] |
| 1 | RLHGHRSHRFTHVAQ [SEQ ID NO: 16] |
| 1 | GWHSLLHSRYHRLAA [SEQ ID NO: 9] |
| 1 | RHLSHFKWLRSHGLD [SEQ ID NO: 19] |

target: T1, TGF-β1; test: not given; format: cell-based; parameters: purchased Roche; host or cells: added to Mv-1-Lu (CCL-64) mink lung epithelial cells; conditions: not given
Excerpt: The cell line Mv-1-Lu (CCL-64, […], Virginia, USA) derives from mink pulmonary epithelium, grows as a monolayer, and responds to the presence of TGF-β1 by decreasing its proliferation (FIG. 5). Thus, the peptide-mediated inhibition of this cytokine is able to restore cell growth and reflects the capacity of the different peptides to inhibit the biological activity of TGF-β1 in vitro. The peptides tested were obtained by peptide synthesis, in accordance to conventional procedures (Merrifield R B. J Am Chem Soc 1963; 85:2149-2154; Atherton E et al. J Chem Soc Perkin Trans 1981; 1:538-546).
The Mv-1-Lu cells are cultured to confluence in complete medium [RPMI-1640 supplemented with L-glutamine, sodium pyruvate, antibiotics and 10% fetal bovine serum (FBS)] at 37° C. and in 5% CO2 in 162 cm^2 bottles (Costar Corporation, CA, USA). Following trypsinization, the cells are cultured in 200 μl of complete medium in 96-well plates at an initial density of 5,000 cells/well at 37° C. and in 5% CO2 during 6 hours to ensure adhesion. Then, different concentrations of the peptides to be tested are added, starting from 200 μg/ml, and following 200 pg/ml of TGF-β1 (Roche) are added. After 12 hours of incubation 1 μCi of methyl-3H-thymidine (Amersham Life Science, Buckinghamshire, United Kingdom) is added per well in 25 μl of clean medium (RPMI-1640). The plate is incubated for 12 more hours under the same conditions. Finally, the cells are harvested (Filtermate 196 Harvester, Packard), transferring the tritiated thymidine, incorporated in the course of DNA synthesis, to plates (UniFilter-96 GF/C®, Perkin Elmer). Following the addition of scintillation fluid, the radioactivity was quantified using a scintillation counter (Top Count, Microplate Scintillation Counter, Packard). As positive and negative control, use was made of the incorporation of tritiated thymidine in the absence and presence of TGF-β1, respectively. The inhibition of TGF-β1 activity in this test was calculated based on the following formula: […]
The negative control represents the incorporation of tritiated thymidine in the presence of TGF-β1 but in the absence of peptide, whereas the positive control refers to the incorporation of tritiated thymidine in the absence of TGF-β1 and peptide. Thus, according to the capacity of the peptides to revert the cytokine repressor effect on Mv-1-Lu cell line proliferation, percentage of TGF-β1 biological activity inhibition by the peptides can be measured (Table 2).
Comparisons have been made of the activity of truncated peptides (derived from peptide sequence SEQ ID NO: 17) versus the complete sequence, in terms of the capacity to revert the suppressor effect of TGF-β1 upon proliferation of the Mv-1-Lu cell line. To this effect, and to determine the minimum sequence of peptide SEQ ID NO: 17 capable of inhibiting the biological activity of TGF-β1 in vitro, truncated versions of this peptide were synthesized, with truncation at the N-terminal end, C-terminal end or in both ends of the molecule. The peptides tested were obtained by peptide synthesis following conventional procedures (Merrifield R B. J Am Chem Soc 1963; 85:2149-2154; Atherton E et al. J Chem Soc Perkin Trans 1981; 1:538-546). Following the same methodology described in Example 2, the activity of truncated peptides versus the complete sequence of the peptide SEQ ID NO: 17 was quantified, in terms of a proliferation assay of the Mv-1-Lu cell line.

| % Inhibition of in vitro TGF-β1 biological activity [%] | Sequence |
| --- | --- |
| 1.4 ± 2.5 | IWFIPRSSWYE [SEQ ID NO: 27, IWFIPRSSWYE] |
| 2.7 ± 1.8 | WFIPRSSWYERA [SEQ ID NO: 29, WFIPRSSWYERA] |
| 3.1 ± 0.9 | WFIPRSSWY [SEQ ID NO: 28, WFIPRSSWY] |
| 6.0 ± 0.4 | KRIWFIPRSS [SEQ ID NO: 35, KRIWFIPRSS] |
| −0.3 ± 3.0 | FIPRSSWYERA [SEQ ID NO: 30, FIPRSSWYERA] |
| 4.5 ± 1.8 | IWFIPRSSWYERA [SEQ ID NO: 26, IWFIPRSSWYERA] |
| 3.4 ± 1.4 | IPRSSWYERA [SEQ ID NO: 31, IPRSSWYERA] |
| 3.8 ± 1.6 | PRSSWYERA [SEQ ID NO: 32, PRSSWYERA] |
| 6.2 ± 1.5 | RIWFIPRSSWYER [SEQ ID NO: 25, RIWFIPRSSWYER] |
| 31.4 ± 7.0 | KRIWFIPRSSWYER [SEQ ID NO: 33, KRIWFIPRSSWYER] |
| 9.4 ± 0.4 | RIWFIPRSSWYERA [SEQ ID NO: 24, RIWFIPRSSWYERA] |
| 6.2 ± 2.5 | KRIWFIPRS [SEQ ID NO: 36, KRIWFIPRS] |
| 34.4 ± 7.9 | KRIWFIPRSSWY [SEQ ID NO: 34, KRIWFIPRSSWY] |

same assay, conditions: Mv-1-Lu proliferation

| inhibition of the biological activity of TGF-β1 in vitro (in words) | Sequence |
| --- | --- |
| inhibitory capacity | PPYHRFWRGHRHAVQ [SEQ ID NO: 6] |
| only inhibitory activity | MPLSRYWWLFSHRPR [SEQ ID NO: 18] |
| inhibitory activity | KRIWFIPRSSWYER [SEQ ID NO: 33, KRIWFIPRSSWYER] |

target: T2, TGF-β1 (Mus musculus, UniProt P04202); test: Model of acute liver damage induced by CCl4, type I collagen mRNA by real time PCR; format: in vivo, mice; parameters: key to % Inhibition of type I collagen mRNA induction (in vivo TGF-β1 biological activity): Neg: negative; conditions: Balb/C mice, oral CCl4, 50 μg of peptide every 24 h, sacrifice after 72 hours
T2 construct: from tissue; host or cells: liver of Balb/C mice (CCl4 model); lung of C57BL/6 mice (bleomycin model)
T2 sequence (P04202 279-390 limits assumed): as the sequence (P01137 279-390 limits assumed, species assumed) above, with A75S counted along it
Experimental: Acute liver damage generates a cascade of effects and physiological responses, including elevations in the concentrations of TGF-β1. This elevation is responsible for the expression of the type I collagen gene, among others. In this model of acute liver damage, female Balb/C mice weighing 25 to 30 g, were orally administered a dose of 2 μl of CCl4 (per gram of body weight) dissolved in an equivalent volume of corn oil (volumetric ratio of 1:1). The control group received an equivalent volume of corn oil only, and the treated groups received (following the single oral administration of CCl4 in corn oil) 50 μg of peptide in 500 μl of 1% physiological saline solution in DMSO (dimethyl sulfoxide) every 24 h. After 72 hours all animals were sacrificed, and the liver samples were processed. To evaluate mRNA expression, liver tissue was frozen in liquid nitrogen and stored at −80° C. until further use. Other liver tissue samples were stored in OCT® or Tissue-Tek® (Sakura Finetek B.V.) and processed in the same way as the samples used for mRNA studies. Other liver samples were fixed in 10% buffered formalin solution, embedded in paraffin and processed for their histological evaluation. The amount of mRNA encoding type I collagen was quantified in all groups using a quantitative polymerase chain reaction (PCR) technique. […] The capacity of the testing peptides to block the acute damage, as assessed by measuring the levels of induced type I collagen mRNA was quantified by real time PCR. […] The peptides tested were obtained by conventional solid peptide synthesis procedures (Merrifield R B. J Am Chem Soc 1963; 85:2149-2154; Atherton E et al. J Chem Soc Perkin Trans 1981; 1:538-546).

| Sequence | % Inhibition of type I collagen mRNA induction (in vivo TGF-β1 biological activity) |
| --- | --- |
| DRRIFWWSLRSAPGA [SEQ ID NO: 1] | 0.69% |
| HVRLHHYLRHRSLPN [SEQ ID NO: 21] | Neg |
| DRRIFWWSNRSAPGA [SEQ ID NO: 2] | 36.6 ± 30.7% |
| HRISHFAHRYLARLH [SEQ ID NO: 7] | Neg |
| WHKYFLRRPLSVGLG [SEQ ID NO: 12] | Neg |
| PPYHRFWRGHRHAVQ [SEQ ID NO: 6] | 74.94 ± 25.3% |
| GWITFHRRHHDRVLS [SEQ ID NO: 15] | 14.26% |
| MPLSRYWWLFSHRPR [SEQ ID NO: 18] | Neg |
| RRFHFHSRMVAVDNS [SEQ ID NO: 20] | 1.41% |
| RRWVRYPVHLHSPIV [SEQ ID NO: 5] | Neg |
| VPMALNHGVYVMVSS [SEQ ID NO: 22] | Neg |
| FVWVRFHRLPRQIYT [SEQ ID NO: 10] | Neg |
| WHWRHRIPLQLAAGR [SEQ ID NO: 8] | Neg |
| RLHGHRSHRFTHVAQ [SEQ ID NO: 16] | Neg |
| GWHSLLHSRYHRLAA [SEQ ID NO: 9] | 26.59% |
| RHLSHFKWLRSHGLD [SEQ ID NO: 19] | 12.12% |

same assay, conditions: acute liver damage, type I collagen mRNA

| Sequence | inhibition of the biological activity of TGF-β1 in vivo (in words) |
| --- | --- |
| DRRIFWWSNRSAPGA [SEQ ID NO: 2] | only inhibitory activity |
| PPYHRFWRGHRHAVQ [SEQ ID NO: 6] | inhibitory capacity |
| KRIWFIPRSSWY [SEQ ID NO: 34, KRIWFIPRSSWY] | capable of inhibiting the expression of collagen type I mRNA |
